Source: US20240197712A1, “TGF-BETA INHIBITION FOR IMMUNODEFICIENCY VIRUS REACTIVATION FROM LATENCY, ENHANCEMENT OF IMMUNODEFICIENCY VIRUS-SPECIFIC RESPONSES AND IMMUNODEFICIENCY VIRUS CURE” (Northwestern University, priority 2022, published 2024)

How the values were obtained:
[1] = system: SIV-env; assay: ImmunoPET/CT, four-cycle study; assay type: in vivo, rhesus macaques
Experimental: ImmunoPET/CT for mapping SIV signals in total body scans were conducted in part as reported previously (110). The probe consisted of primatized p7D3 anti-env F(ab)′2 coupled with the chelator DOTA and labeled with Cu64 just prior to administration to the animals. For probe administration, the animals were sedated, and a venous catheter was placed into an arm of leg vein to minimize bleeding of the probe into the tissue surrounding the site of injection. The probe for each animal consisted of ˜1 mg of the p7D3 F(ab)′2 labeled with 2-3 mCi of ^64Cu. After injection, the animals were allowed to recuperate in their cage until the next day. At 24 hours, the animals were again anesthetized with Telazol and the macaque's body was immobilized in dorsal recumbency on the scanner table. Scans were conducted 535 in a Phillips Gemini TF64 scanner. The final CT image was compiled from 200 to 300 slices, depending on macaque size. PET Image analysis was performed using the MIM software. PET/CT fusions were generated scaled according to calculated Standardized Uptake Values (SUV). The SUV scale for the PET scans was selected based on the overall signal intensity of the PET scans (whole body), and the CT scale was selected for optimal visibility of the tissues. All images and maximum image projections were set to the same scale for visual comparisons.
Multimodal registration and ROI segmentation were executed using the MIM software (MIM Software, Inc., Cleveland, OH) for PET and CT images, encompassing 250 to 300 fractions, depending on the macaque's body size. PET and CT images were fused to quantify changes in SUV (Standardized Uptake Value) within Regions of Interest (ROI), with PET SUV scale determined by overall signal intensity and CT scale optimized for tissue visibility. Segmentations were performed for various anatomical regions: Whole Body, Liver, Lymph nodes, Gut, Kidneys, Spleen, and Vertebrae. The external body was outlined for the Whole-Body contour, while the GRADIENT method PET-Edge and interactive contouring tools were employed for other ROIs. Liver segmentation initially utilized PET-Edge in PET coronal-sectional view, followed by interactive delineation for the structure and the corresponding signals. Kidneys, Spleen, and Vertebrae volume were determined based on CT scans in the cross-sectional view, incorporating PET signals into contours. […] To quantify the signal in the axillary lymph nodes, the data-point in each macaque featuring the strongest PET signal was chosen as a basis for an inhouse Multi-Time-Point Contour Transfer Workflow, followed by interactive contouring of the signal to all time points. The workflow integrated CT scans to establish and map specific ROIs in subsequent scans, thereby accounting for any changes in the animal's orientation at other time points through manual adjustments. To quantify the signal in the gut tissue, the body segment below the stomach to above the cervix was initially isolated. The Gut's SUV was then calculated by extracting the spleen, both kidneys, liver, and bones within the designated body region using Boolean operations.

[2] = Clinical pathology (chemistry, hematology) and adverse events; assay type: in vivo, rhesus macaques
Experimental: 1 mL of blood was collected in EDTA tubes and tested for a standard hematology panel (complete blood count—CBC) using a BECKMAN COULTER DxH600 hematology analyzer. An additional 1 mL of blood was collected into a SST tube, centrifuged to isolate serum, and analyzed for a comprehensive serum chemistry panel using a Siemens's Dimension Clinical Chemistry Analyzer.

For `Cc1cccc(-c2nn3c(c2-c2ccnc4ccc(C(N)=O)cc24)CCC3)n1` [galunisertib, Galunisertib], the “SIV reactivation in tissues by PET/CT” value ([1]; Example 5, all macaques, particularly after cycle 2) was “Extensive SIV reactivation”, the “SUV increase in gastrointestinal area and axillary lymph nodes” value ([1]; compared to before cycle 1 (BC1)) was “significant in cycle 3” and the “SUV at the level of the spleen or kidney” value ([1]; vs BC1) was “No SUV increase”. For the same compound, the “SUV in the liver and whole-body” value ([1]; vs BC1) was “significant increase in SUV”, the “Spine SUV” value ([1]; vs BC1) was “increased significantly with the first cycle” and the “clinical variables (chemistry and hematology)” value ([2]; before, during and after therapy) was “No significant changes”. The adverse events ([2]; macaque studies) was “no adverse events”.
